Data on one compound can be found in patent US20250177359A1, “COMPOUNDS FOR USE IN THE TREATMENT OF CANCER AND INFLAMMATORY CONDITIONS” (priority 2022, published 2025).

The target in this experiment is T1, PARP10 (Homo sapiens, UniProt Q53GL7).
T1 construct: made in house
T1 sequence (Q53GL7 1-1025): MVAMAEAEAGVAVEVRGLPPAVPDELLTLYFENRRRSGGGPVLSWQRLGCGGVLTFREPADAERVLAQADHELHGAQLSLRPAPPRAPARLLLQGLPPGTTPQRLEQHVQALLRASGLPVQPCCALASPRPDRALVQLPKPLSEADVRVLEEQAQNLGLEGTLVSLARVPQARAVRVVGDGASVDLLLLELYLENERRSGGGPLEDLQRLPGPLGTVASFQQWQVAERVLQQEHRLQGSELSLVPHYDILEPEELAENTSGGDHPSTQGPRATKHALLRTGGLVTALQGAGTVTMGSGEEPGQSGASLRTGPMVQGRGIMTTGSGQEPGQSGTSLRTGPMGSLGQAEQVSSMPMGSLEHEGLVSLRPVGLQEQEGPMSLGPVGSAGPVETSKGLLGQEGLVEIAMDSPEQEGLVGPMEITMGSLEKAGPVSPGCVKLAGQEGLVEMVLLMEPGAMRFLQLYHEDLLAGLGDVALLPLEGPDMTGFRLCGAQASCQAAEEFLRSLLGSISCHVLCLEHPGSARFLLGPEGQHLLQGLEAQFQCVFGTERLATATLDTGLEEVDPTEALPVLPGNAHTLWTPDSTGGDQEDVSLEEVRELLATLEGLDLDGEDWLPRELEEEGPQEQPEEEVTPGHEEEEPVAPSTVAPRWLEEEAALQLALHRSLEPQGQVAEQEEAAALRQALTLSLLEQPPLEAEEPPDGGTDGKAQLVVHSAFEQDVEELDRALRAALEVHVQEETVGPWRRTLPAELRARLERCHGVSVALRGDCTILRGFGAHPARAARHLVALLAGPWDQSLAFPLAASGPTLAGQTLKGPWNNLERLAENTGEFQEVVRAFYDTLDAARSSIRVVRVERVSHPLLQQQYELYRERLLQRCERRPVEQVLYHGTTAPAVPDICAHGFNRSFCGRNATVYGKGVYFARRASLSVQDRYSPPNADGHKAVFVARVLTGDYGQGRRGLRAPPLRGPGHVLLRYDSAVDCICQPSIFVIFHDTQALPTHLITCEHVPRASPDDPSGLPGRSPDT
Kind of experiment: Activity assay measuring NAD+ consumption, PARP10 (Tables 1-3). Type of experiment: biochemical. To be noted: PARP10 IC50, Tables 1-3 assay.

As a reminder, the IC50 is the midpoint of a concentration-inhibition curve. A lower IC50 goes with higher potency. `Nc1nnc2sc3cc(O)ccc3n12` [Compound 109, 3-Amino[1,2,4]triazolo[3,4-b][1,3]benzothiazol-7-ol]: it took 0.22 µM to reach half-maximal inhibition (IC50).
